{"source": "patent US20240376480A1", "about": "“TREATMENT OF ELEVATED METABOLITE LEVELS USING NANOCARRIERS” (RAMOT AT TEL-AVIV UNIVERSITY LTD., priority 2021, published 2024)", "key": {"aah1Δ apt1Δ yeast model [1]": {"tested_on": "aah1Δ apt1Δ yeast model", "assay": "Yeast growth assay (OD600) in excess-adenine yeast model", "type": "cell-based", "details": "low and high adenine concentrations (1 mg/L and 4 mg/L)", "protocol": "Yeast growth assays: the strains used in this work were BY4741 (WT) and the adenine salvage mutant, aah1Δ apt1Δ, that was established by a disruption of both AAH1 and APT1. The strains were grown overnight at 30° C. in synthetic defined SD medium (6.7 g/L Yeast Nitrogen Base without Amino Acids (Difco) and 20 g/L glucose (Merck)) containing a specific mixture of amino acids and nucleobases (without adenine). For OD600 measurements, strains were diluted to OD600=0.01. 200 μL of cells were platted on 96 wells microplates (Greiner, F-BOTTOM) with increasing concentrations of adenine (1, 2 and 4 mg/L) and with 2.5% (V/V) of the VLP-riboswitch nano-carries and incubated at 30° C. for 25 h with continuous shaking. OD600 was measured using Tecan™ SPARK 10M plate reader.\nThe aah1Δ apt1Δ mutant yeast model was grown in media without adenine or in media with 1, 2, and 4 mg/L of adenine, respectively."}, "aah1Δ apt1Δ yeast model [2]": {"tested_on": "aah1Δ apt1Δ yeast model", "details": "TA added to the media; cited from earlier work"}, "[3]": {"details": "ligand adenine; cited from earlier work"}}}
{"molecule": "O=C(OC[C@H]1O[C@@H](OC(=O)c2cc(O)c(O)c(OC(=O)c3cc(O)c(O)c(O)c3)c2)[C@H](OC(=O)c2cc(O)c(O)c(OC(=O)c3cc(O)c(O)c(O)c3)c2)[C@@H](OC(=O)c2cc(O)c(O)c(OC(=O)c3cc(O)c(O)c(O)c3)c2)[C@@H]1OC(=O)c1cc(O)c(O)c(OC(=O)c2cc(O)c(O)c(O)c2)c1)c1cc(O)c(O)c(OC(=O)c2cc(O)c(O)c(O)c2)c1", "note": "[TA, tannic acid]", "values": [{"measurement": "growth of the model yeast", "setting": "aah1Δ apt1Δ yeast model [1]", "result": "showed an improved growth"}, {"measurement": "amyloid-like structures of the adenine inside the yeast", "setting": "aah1Δ apt1Δ yeast model [2]", "result": "significant decrease"}]}
{"molecule": "A58U riboswitch: pbuE adenine riboswitch with uracil substituted for adenine at position 58 (nucleic acid, expressed or natural sequence) GCGCGTTGTATAACCTCAATAATATGGTTTGAGGGTGTCTACCAGGAACCGTAAATTCCTGATTACAACGC", "values": [{"measurement": "Kd", "setting": "[3]", "result": "273 ± 17", "unit": "nM"}]}
